Source: patent US20150284375A1 (AJINOMOTO CO., INC., priority 2012, published 2015)

Target: T1, human TRPA1 (Homo sapiens, UniProt O75762)
T1 construct: expressed in transfected cells; host or cells: Human embryonic kidney-derived 293T cells, transiently transfected with the pcDNA3.1/zeo(+) human TRPA1 plasmid
Experiment: Measurement of TRPA1 antagonist activity (intracellular calcium increase, FLIPR, allylisothiocyanate stimulation)
Assay type: cell-based
Details: 293T cells transfected with human TRPA1; allylisothiocyanate 20 μM; concentration for 50% inhibitory rate; read-out: antagonism hTRPA1
Text: Measurement of TRPA1 Antagonist Activity
Human TRPA1 Expression Plasmid
As cDNA encoding human TRPA1 (GenBank accession No. […]), a commercially available product was purchased (manufactured by Kazusa DNA Research Institute, clone No.: pFN21AB7348, item No.: FHC07217). Using this as a template, full-length human TRPA1 gene was amplified using the primer sequences shown below, by reaction using DNA polymerase (manufactured by Stratagene, trade name: PfuUltra High-Fidelity DNA Polymerase).
A recognition site (underlined) of restriction enzyme HindIII was added to the 5′ side, and XbaI site (underlined) was added to the 3′ side, and GTT of the template sequence was changed to termination codon TAG (bold). The obtained double stranded DNA was enzyme-digested with HindIII and XbaI, and introduced into a multicloning site of expression plasmid pcDNA3.1/zeo(+) (manufactured by Invitrogen) to give a human TRPA1 expression plasmid.
Human embryonic kidney-derived 293T cells were cultured in Dulbecco's Modified Eagle Medium containing 10% fetal bovine serum, 10 unit penicillin, and 10 μg streptomycin, plated on a petri dish having a diameter of 10 cm at 3×10^6 cells, and cultured for 24 hr. A medium containing a reduced amount of serum (manufactured by Invitrogen, trade name: OPTI-MEM, 600 μL), a gene insertion reagent (manufactured by Mirus Bio, trade name: Mirus TransIT-293, 18 μL), and human TRPA1 expression plasmid (6 μg) were mixed, the total amount of the mixture was added to the cells on the petri dish to allow for gene transfer. The cells were recovered about 8 hr later, plated on a poly-D-lysine coated 384 well black/clear bottom plate at 7,500-12,000 cells/well, and cultured overnight.
Measurement of Intracellular Calcium Increase
The 384 well plate was recovered, and the medium was removed. A calcium-bonded fluorescent indicator (manufactured by Molecular Device, trade name: Calcium4 Assay Kit, 40 μL) dissolved in assay buffer (1×HBSS, 20 mM HEPES, pH 7.2) was added, and the cells were stained in a 37° C. incubator for 1 hr. The cells were taken out at room temperature and left standing for 15 min or more. A test substance (10 μL) was added by a 384 well type dispenser, and the mixture was incubated at room temperature for 10 min. Then, allylisothiocyanate (12.5 μL) at a final concentration of 20 μM was added by a fluorescence imaging plate reader (manufactured by Molecular Device, FLIPR), and changes in the relative fluorescence intensity were measured for 5 min.
Test Substance Preparation
The test substance was dissolved in dimethyl sulfoxide and serially diluted with an assay buffer containing 0.1% bovine serum albumin (1×HBSS, 20 mM HEPES, pH 7.2) to a 5-fold concentration of the evaluation concentration. Allylisothiocyanate, which is a known TRPA1 activator, was dissolved in dimethyl sulfoxide to 100 mM, and further diluted 5-fold (100 μM) of the final concentration, like the test substance.
Calculation of Antagonist Activity
Under the test substance-free conditions, the maximum variation range of the fluorescence intensity before and after allylisothiocyanate stimulation was defined to be 100% activity rate, and the variation range before and after buffer stimulation was defined as 0% activity rate. The activity rate on addition of the test substance was determined, and the numerical value obtained by subtracting the activity rate from 100 was defined to be an inhibitory rate. 1050, which is the concentration of the test substance necessary for reaching the 50% inhibitory rate, was calculated from the sigmoid approximate curve by a spreadsheet software Excel-Fit.

T1 sequence (O75762 whole entry): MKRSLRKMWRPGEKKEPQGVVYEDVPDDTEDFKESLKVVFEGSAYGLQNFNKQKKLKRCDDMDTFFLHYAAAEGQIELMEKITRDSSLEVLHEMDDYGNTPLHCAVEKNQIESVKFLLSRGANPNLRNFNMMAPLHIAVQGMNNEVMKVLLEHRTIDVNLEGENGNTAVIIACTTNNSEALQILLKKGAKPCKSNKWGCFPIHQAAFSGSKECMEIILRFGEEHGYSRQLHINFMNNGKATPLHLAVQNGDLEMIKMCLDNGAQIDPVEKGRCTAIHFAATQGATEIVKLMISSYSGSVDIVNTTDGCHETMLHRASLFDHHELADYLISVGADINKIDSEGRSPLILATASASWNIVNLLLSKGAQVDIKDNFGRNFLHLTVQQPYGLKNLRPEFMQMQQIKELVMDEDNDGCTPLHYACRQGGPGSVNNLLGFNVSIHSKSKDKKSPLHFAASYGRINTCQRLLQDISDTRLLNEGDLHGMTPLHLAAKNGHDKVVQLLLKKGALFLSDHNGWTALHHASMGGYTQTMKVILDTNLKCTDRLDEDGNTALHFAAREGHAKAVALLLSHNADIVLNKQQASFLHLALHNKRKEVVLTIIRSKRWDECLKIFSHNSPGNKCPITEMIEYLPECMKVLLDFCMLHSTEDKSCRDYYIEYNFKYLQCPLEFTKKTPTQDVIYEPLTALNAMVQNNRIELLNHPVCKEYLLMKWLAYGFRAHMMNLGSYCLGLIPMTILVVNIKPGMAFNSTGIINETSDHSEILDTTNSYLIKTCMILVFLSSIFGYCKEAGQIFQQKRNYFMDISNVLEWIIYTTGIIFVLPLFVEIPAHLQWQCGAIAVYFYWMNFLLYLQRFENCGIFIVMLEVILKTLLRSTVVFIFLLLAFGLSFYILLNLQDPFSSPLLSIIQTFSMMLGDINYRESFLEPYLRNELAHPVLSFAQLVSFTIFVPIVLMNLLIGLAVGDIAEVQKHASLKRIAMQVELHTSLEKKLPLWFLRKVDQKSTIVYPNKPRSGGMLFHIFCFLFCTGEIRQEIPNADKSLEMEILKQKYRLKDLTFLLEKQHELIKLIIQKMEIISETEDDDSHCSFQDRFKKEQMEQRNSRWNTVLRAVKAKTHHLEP

IC50 [nM]	SMILES
140	O=C(NCc1ccc(Oc2cccc(C(F)(F)F)c2)c(Cl)c1)[C@@H]1CCCN1S(=O)(=O)c1ccc(Cl)s1 [Example 24, (2S)-1-(5-chlorothiophene-2-sulfonyl)-N-({3-chloro-4-[3-(trifluoro-methyl)phenoxy]phenyl}methyl)pyrrolidine-2-carboxamide]
130	O=C(NCc1ccc(Oc2cccc(C(F)(F)F)c2)c(F)c1)[C@@H]1CCCN1S(=O)(=O)c1ccc(Cl)s1 [Example 25, (2S)-1-(5-chlorothiophene-2-sulfonyl)-N-({3-fluoro-4-[3-(trifluoro-methyl)phenoxy]phenyl}methyl)pyrrolidine-2-carboxamide]
930	O=C(NCc1c(F)cc(Oc2cccc(C(F)(F)F)c2)cc1F)[C@@H]1CCCN1S(=O)(=O)c1ccc(Cl)s1 [Example 26, (2S)-1-(5-chlorothiophene-2-sulfonyl)-N-({2,6-difluoro-4-[3-(trifluoro-methyl)phenoxy]phenyl}methyl)pyrrolidine-2-carboximide]
220	O=C(NCc1ccc(F)c(Oc2ccc(C(F)(F)F)cc2)c1F)[C@@H]1CCCN1S(=O)(=O)c1ccc(Cl)s1 [Example 27, (2S)-1-(5-chlorothiophene-2-sulfonyl)-N-({2,4-difluoro-3-[4-(trifluoro-methyl)phenoxy]phenyl}methyl)pyrrolidine-2-carboxamide]
1900	O=C(NCc1c(F)ccc(Oc2ccc(C(F)(F)F)cc2)c1Cl)[C@@H]1CCCN1S(=O)(=O)c1ccc(Cl)s1 [Example 28, (2S)-N-({2-chloro-6-fluoro-3-[4-(trifluoromethyl)phenoxy]phenyl}methyl)-1-(5-chlorothiophene-2-sulfonyl)pyrrolidine-2-carboxamide]
140	O=C(NCc1ccc(Oc2cccc(C(F)(F)F)c2)cc1)[C@@H]1C=CCN1S(=O)(=O)c1ccc(Cl)s1 [Example 29, (2S)-1-(5-chlorothiophene-2-sulfonyl)-N-({4-[3-(trifluoromethyl)phenoxy]phenyl}methyl)-2,5-dihydropyrrole-2-carboxamide]
230	O=C(NCc1ccc(Oc2cccc(C(F)(F)F)c2)cc1)[C@@H]1CCCN1S(=O)(=O)c1ccc(F)cc1 [Example 30, (2S)-1-(4-fluorophenyl)sulfonyl-N-({4-[3-(trifluoro-methyl)phenoxy]phenyl}methyl)pyrrolidine-2-carboxamide]
900	O=C(NCc1ccc(Oc2cccc(C(F)(F)F)c2)cc1)[C@@H]1CCN1S(=O)(=O)c1ccc(Cl)s1 [Example 31, (2S)-1-(5-chlorothiophene-2-sulfonyl)-N-({4-[3-(trifluoro-methyl)phenoxy]phenyl}methyl)azetidine-2-carboxamide]
19	O=C(NCc1cccc(Oc2ccc(C(F)(F)F)cc2)c1)[C@@H]1C=CCN1S(=O)(=O)c1ccc(Cl)s1 [Example 32, (2S)-1-(5-chlorothiophene-2-sulfonyl)-N-({3-[4-(trifluoro-methyl)phenoxy]phenyl}methyl)-2,5-dihydropyrrole-2-carboxamide]
56	O=C(NCc1cccc(Oc2ccc(C(F)(F)F)cc2)c1)[C@@H]1CCCN1S(=O)(=O)c1ccc(F)cc1 [Example 33, (2S)-1-(4-fluorophenyl)sulfonyl-N-({3-[4-(trifluoro-methyl)phenoxy]phenyl}methyl)pyrrolidine-2-carboxamide]
150	O=C(NCc1cccc(Oc2ccc(C(F)(F)F)cc2)c1)[C@@H]1CCN1S(=O)(=O)c1ccc(Cl)s1 [Example 34, (2S)-1-(5-chlorothiophene-2-sulfonyl)-N-({3-[4-(trifluoro-methyl)phenoxy]phenyl}methyl)azetidine-2-carboxamide]
810	O=C(NCc1cccc(Oc2ccc(C(F)(F)F)cc2)c1)C1COCCN1S(=O)(=O)c1ccc(Cl)s1 (stereo not drawn) [Example 35, 4-(5-chlorothiophene-2-sulfonyl)-N-({3-[4-(trifluoro-methyl)phenoxy]phenyl}methyl)morpholine-3-carboxamide]
28	O=C(NCc1cccc(Oc2ccc(C(F)(F)F)cc2)c1)[C@@H]1C=CCN1S(=O)(=O)c1ccc(F)cc1 [Example 36, (2S)-1-(4-fluorophenyl)sulfonyl-N-({3-[4-(trifluoromethyl)phenoxy]phenyl}methyl)-2,5-dihydropyrrole-2-carboxamide]
160	O=C(NCc1cccc(Oc2ccc(C(F)(F)F)cc2)c1)[C@@H]1CCN1S(=O)(=O)c1ccc(F)cc1 [Example 37, (2S)-1-(4-fluorophenyl)sulfonyl-N-({3-[4-(trifluoro-methyl)phenoxy]phenyl}methyl)azetidine-2-carboxamide]
76	O=C(NCc1cccc(Oc2ccc(C(F)(F)F)cc2)c1)[C@@H]1CCCN1S(=O)(=O)c1ccc(Cl)cc1 [Example 38, (2S)-1-(4-chlorophenyl)sulfonyl-N-({3-[4-(trifluoro-methyl)phenoxy]phenyl}methyl)pyrrolidine-2-carboxamide]
64	O=C(NCc1ccnc(Oc2ccc(C(F)(F)F)cc2)c1)[C@@H]1CCCN1S(=O)(=O)c1ccc(Cl)s1 [Example 39, (2S)-1-(5-chlorothiophene-2-sulfonyl)-N-({2-[4-(trifluoro-methyl)phenoxy]-4-pyridyl}methyl)pyrrolidine-2-carboxamide]
66	O=C(NCc1cc(Oc2ccc(C(F)(F)F)cc2)ccn1)[C@@H]1CCCN1S(=O)(=O)c1ccc(Cl)s1 [Example 40, (2S)-1-(5-chlorothiophene-2-sulfonyl)-N-({4-[4-(trifluoro-methyl)phenoxy]-2-pyridyl}methyl)pyrrolidine-2-carboxamide]
310	O=C(NCc1ccc(COc2ccccc2)cc1)[C@@H]1CCCN1S(=O)(=O)c1ccc(Cl)s1 [Example 41, (2S)-1-(5-chlorothiophene-2-sulfonyl)-N-{[4-(phenoxymethyl)phenyl]methyl}pyrrolidine-2-carboxamide]
227	O=C(NCc1ccc(COc2ccc(C(F)(F)F)cc2)cc1)[C@@H]1CCCN1S(=O)(=O)c1ccc(Cl)s1 [Example 42, (2S)-1-(5-chlorothiophene-2-sulfonyl)-N-((4-{[4-(trifluoro-methyl)phenoxy]methyl}phenyl)methyl)pyrrolidine-2-carboxamide]
380	O=C(NCc1ccc(COc2ccc(OC(F)(F)F)cc2)cc1)[C@@H]1CCCN1S(=O)(=O)c1ccc(Cl)s1 [Example 43, (2S)-1-(5-chlorothiophene-2-sulfonyl)-N-((4-{[4-(trifluoro-methoxy)phenoxy]methyl}phenyl)methyl)pyrrolidine-2-carboxamide]
670	Cc1ccc(OCc2ccc(CNC(=O)[C@@H]3CCCN3S(=O)(=O)c3ccc(Cl)s3)cc2)cc1 [Example 44, (2S)-1-(5-chlorothiophene-2-sulfonyl)-N-({4-[(4-methyl-phenoxy)methyl]phenyl}methyl)pyrrolidine-2-carboxamide]
670	COc1ccc(OCc2ccc(CNC(=O)[C@@H]3CCCN3S(=O)(=O)c3ccc(Cl)s3)cc2)cc1 [Example 45, (2S)-1-(5-chlorothiophene-2-sulfonyl)-N-({4-[(4-methoxy-phenoxy)methyl]phenyl}methyl)pyrrolidine-2-carboxamide]
390	O=C(NCc1ccc(COc2ccc(F)cc2)cc1)[C@@H]1CCCN1S(=O)(=O)c1ccc(Cl)s1 [Example 46, (2S)-1-(5-chlorothiophene-2-sulfonyl)-N-({4-[(4-fluoro-phenoxy)methyl]phenyl}methyl)pyrrolidine-2-carboxamide]
620	O=C(NCc1ccc(COc2ccc(Cl)cc2)cc1)[C@@H]1CCCN1S(=O)(=O)c1ccc(Cl)s1 [Example 47, (2S)-N-({4-[(4-chlorophenoxy)methyl]phenyl}methyl)-1-(5-chlorothiophene-2-sulfonyl)pyrrolidine-2-carboxamide]
